Laboratory results reported in patent US11872228B2, “Pharmaceutical composition containing thiamine derivative for prevention or treatment of sepsis” (KYUNGPOOK NATIONAL UNIVERSITY INDUSTRY-ACADEMIC COOPERATION …, priority 2021, dated 2024).

Legend:
TNFα [1] = experiment: Inhibition of TNFα expression in vivo (allithiamine along with LPS); parameters: species or system mice
Experimental: The inhibition of TNFα expression in vivo was investigated by the administration of 5 mg/kg allithiamine along with 50 mg/kg LPS, and the results are shown in FIG. 7A and Table 7.

TNFα [2] = experiment: Inhibition of TNFα expression in LPS-activated dendritic cells (ELISA of supernatants); type: cell-based, C57BL/6J male mice; details: for TNFα expression level relative to LPS alone: LPS-activated dendritic cells; for TNFα (pg/mL): 100 ng/mL LPS 18 h
Experimental: (§1) The dendritic cells at 1×10^6 cells/mL were treated with benfotiamine and fursultiamine at different concentrations of 0, 1, 10, and 100 and allithiamine at different concentrations of 0, 1, and 10 μM.
Thereafter, the dendritic cells were activated with 100 ng/mL LPS for 18 hours.

CD86 [3] = experiment: CD86 expression in CD11c+ dendritic cells by flow cytometry; type: cell-based, C57BL/6J male mice
Experimental: as §1
(§2) The dendritic cells were measured for CD40 and CD86 in CD11c+ cells by flow cytometry, and the results are shown in FIGS. 6A and 6B and Tables 5 and 6.

CD40 = CD40 expression in CD11c+ dendritic cells by flow cytometry; type: cell-based, C57BL/6J male mice
Experimental: as §1, §2

TNFα [4] = experiment: Inhibition of TNFα expression in LPS-activated dendritic cells (ELISA of supernatants); type: cell-based, C57BL/6J male mice; details: for TNFα: dendritic cells not stimulated by LPS
[5] = test system: LPS-induced sepsis mouse model; experiment: Survival rate of murine sepsis model, allithiamine treatment; type: in vivo, C57BL/6J male mice
Experimental: The mice were intravenously (I.V.) administered 5 mg/kg allithiamine immediately before intraperitoneal injection of 50 mg/kg LPS, and then the survival rates were monitored (allithiamine 5 mg/kg co-treatment). In addition, the mice were intravenously administered 5 mg/kg allithiamine three hours after LPS injection, and then the survival rates were monitored (allithiamine 5 mg/kg 3 h-delayed co-treatment), and the results are shown in FIG. 3 and Table 2.

IL-1β = experiment: Inhibition of IL-1β expression in LPS-primed, ATP-treated dendritic cells; type: cell-based, C57BL/6J male mice; details: for IL-1β: LPS priming + 5 mM ATP
Experimental: Bone marrow was extracted from the legs of six- to eight-week old C57BL/6J male mice, and subjected to red blood cell (RBC) lysis, followed by differentiation into dendritic cells in RPMI 1640 medium (10% fetal bovine serum (FBS) and 1% penicillin-streptomycin) along with 20 ng/ml granulocyte-macrophage colony-stimulating factor (GM-CSF) for six days. The dendritic cells at 1×10^6 cells/mL were treated with benfotiamine and fursultiamine at different concentrations of 0, 1, 10, and 100 and allithiamine at different concentrations of 0, 1, and 10 μM.
The dendritic cells were subjected to pro-IL1b priming by the treatment with 500 ng/mL LPS for 3 hours, and then treated with benfotiamine at 0, 10, 50, or 100 and fursultiamine at 0, 10, 50, or 100 μM, for 15 minutes. Then, pro-IL1b was converted into IL-1β through pro-IL1b cleavage, followed by 5 mM ATP treatment for inducing inflammasome formation.

CD86 [6] = experiment: CD86 expression in CD11c+ dendritic cells by flow cytometry; type: cell-based, C57BL/6J male mice; details: 50 μM, 100 ng/mL LPS
[7] = allithiamine 5 mg/kg along with LPS 50 mg/kg
[8] = 1 μM, dendritic cells, 100 ng/mL LPS
[9] = 10 μM, dendritic cells not stimulated by LPS
[10] = 10 μM, dendritic cells, 100 ng/mL LPS
[11] = 100 μM, dendritic cells not stimulated by LPS
[12] = 100 μM, dendritic cells, 100 ng/mL LPS

## C=CCSS/C(CCO)=C(/C)N(C=O)Cc1cnc(C)nc1N [Allithiamine, allithiamine]
TNFα [1]; [7]
  Reduction of TNFα expression relative to LPS alone: about 46.494%
  TNFα (pg/mL): 2,084.883 pg/mL
TNFα [1]; allithiamine 5 mg/kg, without LPS
  TNFα: 82.442 pg/mL
TNFα [2]; 1 μM
  TNFα expression level relative to LPS alone: about 88.68%
TNFα [2]; 1 μM, dendritic cells
  TNFα (pg/mL): 4,654.84 pg/mL
TNFα [2]; 10 μM
  TNFα expression level relative to LPS alone: about 74.68%
TNFα [2]; 10 μM, dendritic cells
  TNFα (pg/mL): 3,919.75 pg/mL
CD86 [3]; [8]
  CD86 (Mean fluorescence intensity; MFI): 2,184 MFI
CD86 [3]; 10 μM, dendritic cells
  CD86 expression level relative to LPS alone: about 64%
CD86 [3]; [9]
  CD86 (Mean fluorescence intensity; MFI): 304 MFI
CD86 [3]; [10]
  CD86 (Mean fluorescence intensity; MFI): 1,704 MFI
CD40; [8]
  CD40 (Mean fluorescence intensity; MFI): 1,998 MFI
CD40; 10 μM, dendritic cells
  CD40 expression level relative to LPS alone: about 49%
CD40; [9]
  CD40 (Mean fluorescence intensity; MFI): 253 MFI
CD40; [10]
  CD40 (Mean fluorescence intensity; MFI): 982 MFI
TNFα [4]; 10 μM
  TNFα: 78.51 pg/mL
[5]; 5 mg/kg i.v. 3 h-delayed treatment (3 h after 50 mg/kg LPS i.p.), 0 h
  Percent survival (%): 100%
[5]; 5 mg/kg i.v. 3 h-delayed treatment, 50 mg/kg LPS, 20 h
  Percent survival (%): 100%
[5]; 5 mg/kg i.v. 3 h-delayed treatment, 50 mg/kg LPS, 24 h
  Percent survival (%): 100%
[5]; 5 mg/kg i.v. 3 h-delayed treatment, 50 mg/kg LPS, 28 h
  Percent survival (%): 83.3%
[5]; 5 mg/kg i.v. 3 h-delayed treatment, 50 mg/kg LPS, 32 h
  Percent survival (%): 83.3%
[5]; 5 mg/kg i.v. 3 h-delayed treatment, 50 mg/kg LPS, 36 h
  Percent survival (%): 83.3%
[5]; 5 mg/kg i.v. 3 h-delayed treatment, 50 mg/kg LPS, 40 h
  Percent survival (%): 83.3%
[5]; 5 mg/kg i.v. 3 h-delayed treatment, 50 mg/kg LPS, 44 h
  Percent survival (%): 66.7%
[5]; 5 mg/kg i.v. 3 h-delayed treatment, 50 mg/kg LPS, 48 h
  Percent survival (%): 66.7%
[5]; 5 mg/kg i.v. 3 h-delayed treatment, 50 mg/kg LPS, 52 h
  Percent survival (%): 66.7%
[5]; 5 mg/kg i.v. 3 h-delayed treatment, 50 mg/kg LPS, 56 h
  Percent survival (%): 66.7%
[5]; 5 mg/kg i.v. 3 h-delayed treatment, 50 mg/kg LPS, 60 h
  Percent survival (%): 66.7%
[5]; 5 mg/kg i.v. co-treatment (immediately before 50 mg/kg LPS i.p.), 0 h
  Percent survival (%): 100%
[5]; 5 mg/kg i.v. co-treatment, 50 mg/kg LPS, 20 h
  Percent survival (%): 100%
[5]; 5 mg/kg i.v. co-treatment, 50 mg/kg LPS, 24 h
  Percent survival (%): 83.3%
[5]; 5 mg/kg i.v. co-treatment, 50 mg/kg LPS, 28 h
  Percent survival (%): 83.3%
[5]; 5 mg/kg i.v. co-treatment, 50 mg/kg LPS, 32 h
  Percent survival (%): 83.3%
[5]; 5 mg/kg i.v. co-treatment, 50 mg/kg LPS, 36 h
  Percent survival (%): 66.7%
[5]; 5 mg/kg i.v. co-treatment, 50 mg/kg LPS, 40 h
  Percent survival (%): 66.7%
[5]; 5 mg/kg i.v. co-treatment, 50 mg/kg LPS, 44 h
  Percent survival (%): 66.7%
[5]; 5 mg/kg i.v. co-treatment, 50 mg/kg LPS, 48 h
  Percent survival (%): 66.7%
[5]; 5 mg/kg i.v. co-treatment, 50 mg/kg LPS, 52 h
  Percent survival (%): 66.7%
[5]; 5 mg/kg i.v. co-treatment, 50 mg/kg LPS, 56 h
  Percent survival (%): 66.7%
[5]; 5 mg/kg i.v. co-treatment, 50 mg/kg LPS, 60 h
  Percent survival (%): 66.7%

## C/C(=C(\CCOP(=O)(O)O)SC(=O)c1ccccc1)N(C=O)Cc1cnc(C)nc1N [Benfotiamine, benfotiamine]
TNFα [2]; 1 μM, dendritic cells
  TNFα (pg/mL): 4,909.05 pg/mL
TNFα [2]; 10 μM, dendritic cells
  TNFα (pg/mL): 4,614.42 pg/mL
TNFα [2]; 100 μM, dendritic cells
  TNFα (pg/mL): 4,696.43 pg/mL
TNFα [2]; dendritic cells, up to 100 μM
  Inhibition of the TNFα expression increased by LPS (in words): could not inhibit
IL-1β; 10 μM
  IL-1β: 912.2951 pg/mL
IL-1β; 50 μM
  IL-1β: 914.9398 pg/mL
IL-1β; 100 μM
  IL-1β: 914.2512 pg/mL
IL-1β; up to 100 μM
  Inhibition of the IL-1β expression increased by LPS (in words): could not inhibit
CD86 [6]
  CD86 (Mean fluorescence intensity; MFI): 2,448 MFI
CD86 [3]; [8]
  CD86 (Mean fluorescence intensity; MFI): 2,734 MFI
CD86 [3]; [10]
  CD86 (Mean fluorescence intensity; MFI): 2,198 MFI
CD86 [3]; [11]
  CD86 (Mean fluorescence intensity; MFI): 382 MFI
CD86 [3]; [12]
  CD86 (Mean fluorescence intensity; MFI): 430 MFI
CD86 [3]; dendritic cells, up to 100 μM
  Inhibition of the CD86 expression increased by LPS (in words): could not inhibit
CD40; [8]
  CD40 (Mean fluorescence intensity; MFI): 2,134 MFI
CD40; [10]
  CD40 (Mean fluorescence intensity; MFI): 1,975 MFI
CD40; [11]
  CD40 (Mean fluorescence intensity; MFI): 248 MFI
CD40; [12]
  CD40 (Mean fluorescence intensity; MFI): 1,803 MFI
CD40; dendritic cells, up to 100 μM
  Inhibition of the CD40 expression increased by LPS (in words): could not inhibit
TNFα [4]; 50 μM, dendritic cells, 100 ng/mL LPS 18 h
  TNFα (pg/mL): 4,806.97 pg/mL
TNFα [4]; 100 μM
  TNFα: 84.82 pg/mL
